# Source: patent publication US10054581B1, “Inhibitors of notch signaling pathway and use thereof in treatment of cancers” (Ecole Polytechnique Federale de Lausanne (EPFL), priority 2011, dated 2018)
# “Also recorded” adds a separate entry of the source.
# What was measured:
# [1] = test system: NICD/MAML1 Notch transcriptional activation complex; experiment: MAML1 rescue: HeLa cells co-transfected with NICD and MAML1-FLAG, 12×CSL luciferase; type: cell-based; settings: 24 hours
# Procedure: HeLa cells were co-transfected 800 ng of NICD+3 μg of pCDNA3.1 or 800 ng of NICD+1 μg of MAML1-FLAG or 800 ng of NICD+3 μg of MAML1-FLAG expression vectors. To measure Notch pathway activation, pGL4.26-12×CSL luciferase plasmid was also introduced into the cells. SV40 renilla was used as an internal control. Cells transfected with different combinations and amounts of plasmid were treated with DMSO or increasing concentration of 6-(4-Tert-Butylphenoxy)Pyridin-3-Amine (I3) (1, 2.5, 5 and 10 μM) for 24 hours. 12×CSL driven luciferase activity was measured using dual luciferase assay system.
# NICD-GFP overexpression studies were performed using pEGFP-C1-NICD expression plasmid. The FLAG-CMV2 plasmid expressing MAML1-FLAG was a kind gift from Dr. Lizi Wu, Harvard Medical School, Boston.
# To further investigate the mechanism of action of 6-(4-Tert-Butylphenoxy)Pyridin-3-Amine (I3), Applicants speculated that 6-(4-Tert-Butylphenoxy)Pyridin-3-Amine (I3) might be targeting one of the components of the transcriptional activation complex. The over expression of this target protein may titrate out 6-(4-Tert-Butylphenoxy)Pyridin-3-Amine (I3) compound and thus rescue 6-(4-Tert-Butylphenoxy)Pyridin-3-Amine (I3) induced pathway inhibition. […] The Notch pathway activation was measured by introducing 12×CSL luciferase plasmid. […]
# [2] = test system: Hedgehog signalling (Gli1); experiment: Hedgehog signalling Gli1 luciferase assay in HeLa cells; type: cell-based; settings: HeLa cells with Gli1 and Gli1 binding site luciferase
# From the text: Using a similar strategy, Hedgehog signalling was activated in HeLa cells by introducing the Gli1 transcription factor and pathway activation was monitored using a promoter sequence containing Gli1 binding sites driving the luciferase expression. […] However it still needs to be determined whether the resistance of Wnt and Hedgehog signalling towards 6-(4-Tert-Butylphenoxy)Pyridin-3-Amine (I3) is cell type specific or whether it is a general phenomenon.
# HCC1187 = experiment: Cell cycle analysis (Ki67 and Hoechst stain), HCC1187; type: cell-based, human; settings: 10 μM, 48 hours
# Procedure: (§1) FIGS. 6A-6D show 6-(4-Tert-Butylphenoxy)Pyridin-3-Amine (I3) induces G0/G1 cell cycle arrest and apoptosis in human T cell acute lymphoblastic leukemia cell lines and human breast cancer cell line HCC1187. […] Percentage of Annexin V positive (apoptotic) cell population was measured using flow cytometry.
# In addition to induction of apoptosis, the proliferative arrest observed in 6-(4-Tert-Butylphenoxy)Pyridin-3-Amine (I3) treated human leukemic cell lines and breast cancer cell line also appears to be due to cell cycle arrest in G0/G1 phase of the cell cycle. Leukemic cell lines (RPMI8402, KOPTK1 and TALL1) and breast cancer cell lines were treated with 6-(4-Tert-Butylphenoxy)Pyridin-3-Amine (I3) for 48 hours and cell cycle status was determined using Ki67 and Hoechst stain.
# RPMI 8402 leukemic cells = experiment: RPMI 8402 xenotransplantation in NOD/SCID γc−/− mice; type: in vivo, human
# Procedure: FIGS. 8A-8B show 6-(4-Tert-Butylphenoxy)Pyridin-3-Amine (I3) treatment increases latency of leukemia development in mice. […] On day 15, leukemic cells were established in the bone marrow. Mice were treated with oil or 6-(4-Tert-Butylphenoxy)Pyridin-3-Amine (I3) for every day. Mice were imaged on day 27 using Caliper IVIS (Xenogen) live imaging system. Red and blue colour indicates the intensity of luciferase signal and correlates with the number of leukemic cells. […] NOD/SCID γc^−/− mice were transplanted with 5×10^5 RPMI 8402 (luciferase expressing) cells. Leukemia development was followed using Caliper IVIS (Xenogen) live imaging system. […]
# The human leukemic cell lines RPMI 8402 and HPB ALL were transduced with a lentivirus containing luciferase gene constitutively expressed downstream of a CMV promoter. […] Mice were monitored for tumor development using Caliper IVIS (Xenogen) live imaging system. […]
# Similarly in a preliminary experiment, NOD/SCID γc^−/− mice were transplanted with 5×10^5 RPMI 8402 cells and treated with oil or 6-(4-Tert-Butylphenoxy)Pyridin-3-Amine (I3) following the establishment of the disease. […] Since these animals were treated with the chemical compound 6-(4-Tert-Butylphenoxy)Pyridin-3-Amine (I3) for 27 days, the intestinal tissue was analyzed to detect any toxicity in the gut.
# CUTL1 = experiment: Annexin V apoptosis, CUTL1; type: cell-based, human; settings: 10 μM, 7 days
# Procedure: as §1
# To quantitate the percentage of apoptotic cells, AnnexinV and 7AAD staining was performed. Thymic cells were suspended in 300 μl of 1× AnnexinV binding buffer (BD Biosciences, San Diego, USA) and incubated with 10 μl of AnnexinV-Cy5 antibody and 10 μl of 7AAD (BD Biosciences, San Diego, USA). Samples were incubated for 15 minutes at room temperature. FACS was performed with in one hour of antibody staining.
# This 6-(4-Tert-Butylphenoxy)Pyridin-3-Amine (I3) mediated proliferative arrest could be due to induction of apoptosis or cell cycle arrest during different phases of cell cycle. […] Therefore to further elucidate the mechanisms responsible for 6-(4-Tert-Butylphenoxy)Pyridin-3-Amine (I3) mediated proliferative arrest cell cycle and apoptosis analyses were carried out. […] To investigate cell death, Annexin V staining was performed and proportion of apoptotic (AnnexinV positive) cell population was determined by flow cytometry analyses after 7 days of treatment.
smiles,measurement,setting,value
"CC(C)(C)c1ccc(Oc2ccc(N)cn2)cc1 [I3, 6-(4-Tert-Butylphenoxy)Pyridin-3-Amine]","Notch signalling, NICD + 1 μg MAML1","[1]; 800 ng NICD + 1 μg MAML1-FLAG, I3 1-10 μM",can block Notch signalling in a concentration dependent manner
same,"Notch signalling, NICD alone (no MAML1)","[1]; 800 ng NICD, I3 1, 2.5, 5 and 10 μM",can block Notch signalling in a concentration dependent manner; also recorded: could block Notch signalling activations
same,Hedgehog signalling,[2],did not inhibit the Hedgehog signalling cascade
same,cell cycle status,HCC1187,induces an arrest in the G0/G1 phase of the cell cycle
same,leukemia development (luciferase live imaging),"RPMI 8402 leukemic cells; 5×10^5 cells, daily treatment for 27 days after establishment of disease, preliminary experiment",blocks RPMI 8402 leukemic cell growth in xenotransplantation assay
same,metastatic lesions in the liver (histology),RPMI 8402 leukemic cells; daily treatment for 27 days,did not develop any metastatic lesions in the liver
same,apoptosis (Annexin V positive cells),CUTL1,induces significant apoptosis
